In the supplement of paper PMC10307832:

Experiments:
Experiment in all cases: relative viability (nuclei count vs DMSO), 5 days (fraction); higher = more cells survive
[1] = compound: CCC1=CN=CN=C1N2CCN(CC2)CC3=NC4=C(N3)C=C(C=C4)C(F)(F)F + C[C@]1(O)C[C@@H](c2nc(-c3ccc4ccc(-c5ccccc5)nc4c3)c3c(N)nccn32)C1 [Linsitinib] (partner 1 µM)
Summary of the method: (§1)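 One day after seeding in 1536-well plates, lung cancer cell lines were dosed by pin tool. Dosing was either single-drug or a fixed anchor-drug dose plus five library-drug doses (not always all listed) in √10 steps. After 5 days, nuclei were stained in one fix-and-stain step and counted on 4× images, and relative viability is the nuclei count of treated wells over that of vehicle wells, given as the median of duplicate plates.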

[2] = compound: CCn1c(-c2nonc2N)nc2cnc(Oc3cccc(NC(=O)c4ccc(OCCN5CCOCC5)cc4)c3)cc21 + Nc1ncn([C@H]2C[C@H](O)[C@@H](CO)O2)c(=O)n1 [Decitabine] (partner 2 µM)
Summary of the method: as §1

[3] = compound: CCn1c(-c2nonc2N)nc2cnc(Oc3cccc(NC(=O)c4ccc(OCCN5CCOCC5)cc4)c3)cc21 + COc1cc2c(Oc3ccc(NC(=O)C4(C(=O)Nc5ccc(F)cc5)CC4)cc3F)ccnc2cc1OCCCN1CCOCC1 [Foretinib] (partner 0.25 µM)
Summary of the method: as §1

[4] = compound: N=C1NC(=O)/C(=C/c2ccc(O)cc2)S1 [Mirin] + Cc1nc(NC(=O)N2CCC[C@H]2C(N)=O)sc1-c1ccnc(C(C)(C)C(F)(F)F)c1 [Alpelisib] (partner 2 µM)
Summary of the method: as §1

Q: What does the source list for NCI-H2347?
A: relative viability ([1]; first compound 0.04 µM): 0.961; relative viability ([1]; first compound 0.1265 µM): 0.926; relative viability ([1]; first compound 0.4 µM): 0.944; relative viability ([1]; first compound 1.265 µM): 0.942; relative viability ([1]; first compound 4 µM): 1.09; relative viability ([2]; first compound 0.04 µM): 0.607; relative viability ([2]; first compound 0.1265 µM): 0.565; relative viability ([2]; first compound 0.4 µM): 0.624; relative viability ([2]; first compound 1.265 µM): 0.461; relative viability ([2]; first compound 4 µM): 0.434; relative viability ([3]; first compound 0.04 µM): 1.08; relative viability ([3]; first compound 0.1265 µM): 1.27; relative viability ([3]; first compound 0.4 µM): 1.26; relative viability ([3]; first compound 1.265 µM): 0.459; relative viability ([3]; first compound 4 µM): 0.585; relative viability ([4]; first compound 0.25 µM): 1.02; relative viability ([4]; first compound 0.7906 µM): 1.12; relative viability ([4]; first compound 2.5 µM): 1.05; relative viability ([4]; first compound 7.906 µM): 1.08; relative viability ([4]; first compound 25 µM): 1.16

Q: Which results are given for ABC-1?
A: relative viability ([1]; first compound 0.04 µM): 0.873; relative viability ([1]; first compound 0.1265 µM): 0.777; relative viability ([1]; first compound 0.4 µM): 0.676; relative viability ([1]; first compound 1.265 µM): 0.631; relative viability ([1]; first compound 4 µM): 0.831; relative viability ([2]; first compound 0.04 µM): 1.13; relative viability ([2]; first compound 0.1265 µM): 1.07; relative viability ([2]; first compound 0.4 µM): 1.21; relative viability ([2]; first compound 1.265 µM): 0.507; relative viability ([2]; first compound 4 µM): 0.672; relative viability ([3]; first compound 0.04 µM): 0.804; relative viability ([3]; first compound 0.1265 µM): 1.29; relative viability ([3]; first compound 0.4 µM): 1.15; relative viability ([3]; first compound 1.265 µM): 0.802; relative viability ([3]; first compound 4 µM): 0.417; relative viability ([4]; first compound 0.25 µM): 1.34; relative viability ([4]; first compound 0.7906 µM): 1.14; relative viability ([4]; first compound 2.5 µM): 1.09; relative viability ([4]; first compound 7.906 µM): 1.1; relative viability ([4]; first compound 25 µM): 0.633

Q: Which results are given for 201T?
A: relative viability ([1]; first compound 0.04 µM): 0.922; relative viability ([1]; first compound 0.1265 µM): 1.04; relative viability ([1]; first compound 0.4 µM): 0.998; relative viability ([1]; first compound 1.265 µM): 0.88; relative viability ([1]; first compound 4 µM): 1.01; relative viability ([2]; first compound 0.04 µM): 0.825; relative viability ([2]; first compound 0.1265 µM): 0.834; relative viability ([2]; first compound 0.4 µM): 0.823; relative viability ([2]; first compound 1.265 µM): 0.86; relative viability ([2]; first compound 4 µM): 0.827; relative viability ([3]; first compound 0.04 µM): 1.28; relative viability ([3]; first compound 0.1265 µM): 1.11; relative viability ([3]; first compound 0.4 µM): 1.05; relative viability ([3]; first compound 1.265 µM): 0.555; relative viability ([3]; first compound 4 µM): 0.598; relative viability ([4]; first compound 0.25 µM): 1.01; relative viability ([4]; first compound 0.7906 µM): 1; relative viability ([4]; first compound 2.5 µM): 1.02; relative viability ([4]; first compound 7.906 µM): 1.11; relative viability ([4]; first compound 25 µM): 1.14

Q: Which results are given for NCI-H1734?
A: relative viability ([1]; first compound 0.04 µM): 0.971; relative viability ([1]; first compound 0.1265 µM): 0.836; relative viability ([1]; first compound 0.4 µM): 0.946; relative viability ([1]; first compound 4 µM): 0.877; relative viability ([2]; first compound 0.04 µM): 0.574; relative viability ([2]; first compound 0.1265 µM): 0.504; relative viability ([2]; first compound 0.4 µM): 0.515; relative viability ([2]; first compound 1.265 µM): 0.459; relative viability ([2]; first compound 4 µM): 0.393; relative viability ([3]; first compound 0.04 µM): 0.97; relative viability ([3]; first compound 0.1265 µM): 0.882; relative viability ([3]; first compound 0.4 µM): 0.69; relative viability ([3]; first compound 1.265 µM): 0.599; relative viability ([3]; first compound 4 µM): 0.44; relative viability ([4]; first compound 0.25 µM): 0.67; relative viability ([4]; first compound 0.7906 µM): 0.651; relative viability ([4]; first compound 2.5 µM): 0.684; relative viability ([4]; first compound 7.906 µM): 0.656; relative viability ([4]; first compound 25 µM): 0.584

Q: Which results are given for NCI-H596?
A: relative viability ([1]; first compound 0.04 µM): 1.14; relative viability ([1]; first compound 0.1265 µM): 1.08; relative viability ([1]; first compound 0.4 µM): 1.09; relative viability ([1]; first compound 1.265 µM): 1.06; relative viability ([1]; first compound 4 µM): 1.02; relative viability ([2]; first compound 0.04 µM): 1.01; relative viability ([2]; first compound 0.1265 µM): 1.04; relative viability ([2]; first compound 0.4 µM): 0.969; relative viability ([2]; first compound 1.265 µM): 0.926; relative viability ([2]; first compound 4 µM): 0.932; relative viability ([3]; first compound 0.04 µM): 0.961; relative viability ([3]; first compound 0.1265 µM): 0.873; relative viability ([3]; first compound 0.4 µM): 0.814; relative viability ([3]; first compound 1.265 µM): 0.742; relative viability ([3]; first compound 4 µM): 0.767; relative viability ([4]; first compound 0.25 µM): 0.438; relative viability ([4]; first compound 0.7906 µM): 0.45; relative viability ([4]; first compound 2.5 µM): 0.481; relative viability ([4]; first compound 7.906 µM): 0.513; relative viability ([4]; first compound 25 µM): 0.361

Q: What does the source list for NCI-H1355?
A: relative viability ([1]; first compound 0.04 µM): 0.852; relative viability ([1]; first compound 0.1265 µM): 0.745; relative viability ([1]; first compound 0.4 µM): 0.806; relative viability ([1]; first compound 1.265 µM): 0.732; relative viability ([1]; first compound 4 µM): 0.913; relative viability ([2]; first compound 0.04 µM): 0.31; relative viability ([2]; first compound 0.1265 µM): 0.36; relative viability ([2]; first compound 0.4 µM): 0.358; relative viability ([2]; first compound 1.265 µM): 0.364; relative viability ([2]; first compound 4 µM): 0.307; relative viability ([3]; first compound 0.04 µM): 1.05; relative viability ([3]; first compound 0.1265 µM): 0.948; relative viability ([3]; first compound 0.4 µM): 1.03; relative viability ([3]; first compound 1.265 µM): 0.955; relative viability ([3]; first compound 4 µM): 1; relative viability ([4]; first compound 0.25 µM): 0.858; relative viability ([4]; first compound 0.7906 µM): 0.864; relative viability ([4]; first compound 2.5 µM): 0.754; relative viability ([4]; first compound 7.906 µM): 0.915; relative viability ([4]; first compound 25 µM): 0.727

Q: How did the relative viability ([1]; first compound 0.04 µM) turn out when NCI-H1915 was run?
A: The relative viability was 1.15.

Q: What about the relative viability ([1]; first compound 0.1265 µM) of the same cell line?
A: The relative viability was 1.09.

Q: And the relative viability ([1]; first compound 0.4 µM)?
A: The relative viability was 1.09.

Q: And the relative viability ([1]; first compound 1.265 µM)?
A: Its relative viability is 1.04.

Q: And the relative viability ([1]; first compound 4 µM)?
A: The relative viability was 1.12.

Q: And the relative viability ([2]; first compound 0.04 µM)?
A: Its relative viability is 0.249.

Q: And the relative viability ([2]; first compound 0.1265 µM)?
A: The relative viability was 0.265.

Q: What about the relative viability ([2]; first compound 0.4 µM) of the same cell line?
A: Its relative viability is 0.275.

Q: And the relative viability ([2]; first compound 1.265 µM)?
A: The relative viability was 0.24.

Q: And the relative viability ([2]; first compound 4 µM)?
A: Its relative viability is 0.21.

Q: And the relative viability ([3]; first compound 0.04 µM)?
A: The relative viability was 1.09.

Q: What about the relative viability ([3]; first compound 0.1265 µM) of the same cell line?
A: Its relative viability is 1.14.

Q: What about the relative viability ([3]; first compound 0.4 µM) of the same cell line?
A: The relative viability was 1.1.

Q: What about the relative viability ([3]; first compound 1.265 µM) of the same cell line?
A: Its relative viability is 1.08.

Q: What about the relative viability ([3]; first compound 4 µM) of the same cell line?
A: The relative viability was 1.12.

Q: And the relative viability ([4]; first compound 0.25 µM)?
A: Its relative viability is 1.04.

Q: What about the relative viability ([4]; first compound 2.5 µM) of the same cell line?
A: The relative viability was 1.09.

Q: And the relative viability ([4]; first compound 7.906 µM)?
A: The relative viability was 0.948.

Q: And the relative viability ([4]; first compound 25 µM)?
A: The relative viability was 1.08.

Q: What does the source list for BEN?
A: relative viability ([1]; first compound 0.04 µM): 0.868; relative viability ([1]; first compound 0.1265 µM): 0.82; relative viability ([1]; first compound 0.4 µM): 0.802; relative viability ([1]; first compound 1.265 µM): 0.531; relative viability ([1]; first compound 4 µM): 0.477; relative viability ([2]; first compound 0.04 µM): 0.734; relative viability ([2]; first compound 0.1265 µM): 0.495; relative viability ([2]; first compound 0.4 µM): 0.451; relative viability ([2]; first compound 1.265 µM): 0.373; relative viability ([2]; first compound 4 µM): 0.489; relative viability ([3]; first compound 0.04 µM): 0.668; relative viability ([3]; first compound 0.1265 µM): 0.449; relative viability ([3]; first compound 0.4 µM): 0.338; relative viability ([3]; first compound 1.265 µM): 0.346; relative viability ([3]; first compound 4 µM): 0.351; relative viability ([4]; first compound 0.25 µM): 1.03; relative viability ([4]; first compound 0.7906 µM): 1.08; relative viability ([4]; first compound 2.5 µM): 1.09; relative viability ([4]; first compound 7.906 µM): 0.973; relative viability ([4]; first compound 25 µM): 0.467
